We go through seven molecules from the NIST ThermoML archive (doi:10.1016/j.jct.2012.09.019).

The refractive index is a measure of how strongly the sample bends light.

SMILES strings stand for the structures. ± gives the expanded uncertainty stated by the source.

For data set [1] the following is noted: Crystal.
Data set [2] is described as follows: refractive index (Na D-line) (dimensionless). As to conditions: 293.15 K; 101.33 kPa; Liquid; digital refractometer.

`CCCC(=O)O` [butanoic acid]: the Normal melting temperature in data set [1] (Heating/Cooling curves) is -5.2 ± 2 °C. The refractive index in data set [2] was 1.39808 ± 0.0014.
For the molecule `CCC(=O)O` [propanoic acid], the Normal melting temperature in data set [1] (Heating/Cooling curves) is -20.8 ± 2 °C. In data set [2], the refractive index was determined as 1.38682 ± 0.0014.
As to `CCCCCCCCCCCCCCCC` [hexadecane], the Normal melting temperature in data set [1] (Heating/Cooling curves) was found to be 18.1 ± 2 °C; in data set [1] (heating/cooling curves), 18.0 ± 2 °C. In addition, the refractive index in data set [2] amounted to 1.43461 ± 0.0014.
For `CCCCC(=O)O` [pentanoic acid], the Normal melting temperature in data set [1] (Heating/Cooling curves) was -34.4 ± 2 °C. In data set [2], the refractive index came out at 1.40857 ± 0.0015.
Consider `CCCCCC(=O)O` [hexanoic acid], for which the Normal melting temperature in data set [1] (Heating/Cooling curves) was -2.4 ± 2 °C. Also, in data set [2], the refractive index came to 1.41692 ± 0.0015.
As to `C1CCCCC1` [cyclohexane], the Normal melting temperature in data set [1] (Heating/Cooling curves) is 6.7 ± 2 °C. Also, the refractive index in data set [2] came to 1.42631 ± 0.0014.
With `CCCCCCC(=O)O` [heptanoic acid], in data set [1] (Heating/Cooling curves), the Normal melting temperature was -7.5 ± 2 °C. Moreover, in data set [2], the refractive index is on record as 1.4229 ± 0.0014.
